# Publication PMC6279743, “A small molecule ApoE4-targeted therapeutic candidate that normalizes sirtuin 1 levels and improves cognition in an Alzheimer’s disease mouse model” (Scientific Reports, 2018)
# Read-outs that look alike come from different tables or passages of the source.
# Tests used:
# [1] = system: SirT2 levels in N2a-E4 cells; test: SirT2 sandwich ELISA in N2a-E4 cells; format: cell-based, murine; settings: A03 at 5 or 50 μM vs DMSO
# N2a-E4 cells = test: Lysate protein concentration (Bradford assay); format: cell-based, murine; settings: A03 at 5 or 50 μM
# Description: Compound in medium (50 µL, 2X) was loaded into a 96-well plate, then 4 × 10^4 cells were added to each well; 24 hrs later the medium was removed and cells lysed. Lysate protein concentration was determined using the Bradford assay according to the manufacturer’s instructions. SirT1 was determined in lysates using the SirT1 AlphaLISA as described above.
# [2] = system: SirT1 levels in A172-E4 cells; test: Confirmation assay in A172-E4 cells, SirT1 AlphaLISA; format: cell-based, human; settings: 50 μM A03 vs DMSO
# Description: Jesus Campagna, Patricia Spilman, Barbara Jagodzinska, Dongsheng Bai, Asa Hatami, Chunni Zhu, Tina Bilousova, Michael Jun, Chris Jean Elias, Johnny Pham, Gregory Cole, Mary Jo LaDu, Michael E. Jung, Dale E. Bredesen, and […]
# Confirmation assay in A172-E4 cells. Befo re transfection, A172 human glioblastoma cells were cultured in Dulbecco’s Modified Eagle Medium (DMEM) supplemented with 10% fetal bovine serum and 1% penicillin/streptomycin in a 37 °C incubator in an atmosphere of 5% CO2 in air. The day of transfection, the media was replaced with Opti-MEM reduced serum medium. Transient transfection with human ApoE4 and ApoE3 constructs in pcDNA3 mammalian expression vectors or empty vector (control) was performed in 96-well plates using a 1:1 mixture of two transfection reagents - Lipofectamine 2000 and siPORT amine - in Opti-MEM as previously described13. After 4 hr incubation with transfection reagents, medium was exchanged for fresh […]
# Cells were incubated with the compound for 60 hrs, then cell culture medium (for sAPPα) and cells (lysates for SirT1) were harvested and levels of sAPPα and SirT1
# [3] = Parallel Artificial Membrane Permeability Assay (PAMPA; IAM column); format: in vitro ADME
# Description: We used L(+)tartaric acid to isolate the L-enantiomer salt and D(-) tartaric acid to isolate the D-enantiomer salt, followed by neutralization of the salt with NaOH and re-crystallization to obtain the enantiomers. Enantiomer abundance (Supplementary Fig. S4) was determined by HPLC using a Chiralpak IB column. Isopropanol (0.2% diethylamine)/hexanes was used for gradient elution with 5–50% isopropanol (0.2% diethylamine) for 11 min, a Chiralpak IB column, and with sample (1 μL, 1.25 mg/mL) injection, 220 nm wavelength detection, and a flow rate of 1 mL/min. […] The L-alanine analog co-elutes with enantiomer-1 while the D-alanine analog co-elutes with enantiomer-2. Analysis of the enantiomers and A03 in the Parallel Artificial Membrane Permeability Assay (PAMPA) was performed and is described in Supplementary Methods. […]
# PAMPA. An IAM.PC.DD2 Regis Technologies analytical (10 cm x 4.6 mm) column wherein phospholipid is bonded on 10 μm, 300 Å, spherical aminopropyl silica and end capped with C10 and C3 amides was used to determine membrane permeability of A03, E1 and E2. An isocratic method was used with a mobile phase comprising acetonitrile:PBS (pH 5.6) equal to 35:65, an injection volume of 5 µL, and a flow rate of 1 mL/min. The parameters determined are Tr = retention time of compound; KIAM= (Tr-T0)/T0; T0= is the delay time of the column, determined by use of 100 µg/mL citric acid) and was T0= 1.24 min; and (KIAM/MW4)*10-(10). The molecular weight of all three compounds was 255.74 g/mol. […]
# Supplementary Fig. S1. […] (a) Transient transfection with either
# ApoE3 or E4 decreased SirT1 levels as compared to empty vector (Pc/DMSO), but the decrease was greater with […]
# [4] = Pharmacokinetics after subcutaneous (SQ) injection in mice; format: in vivo
# [5] = Brain compound levels 2 hours after the last dose in efficacy studies; format: in vivo, mice
# Description: Mice were euthanized and blood/tissues collected 2 hrs after dosing on day 28 by the method described above for PK. Frontal and parietal cortices (FrCx and PtCx, respectively), as well as the remaining brain tissue, from individual mice were dissected, snap frozen on dry ice, and stored at −80 °C. Plasma samples and the brain tissue minus the FrCx and PtCx (the ‘rest’) from all compound-treated mice were sent to IAS for compound level analysis as described above.
# Mice were euthanized and blood/tissues collected 2 hrs after dosing on Day 25 by the method described above for PK. FrCx, PtCx, and hippocampi (Hip) were collected from all mice for SirT1 and sAPPα level determination by AlphaLISA. Protein concentration was determined using a Bradford protein assay. Brain and plasma levels of A03 were determined at IAS.
# Mice were euthanized and blood/tissues collected 2 hrs after dosing on Day 56 by the method described above for PK. Hip and FrCx were collected for analysis of SirT1, sAPPα, and Aβ1-42 levels by AlphaLISA. For Aβ1-42 the Perkin Elmer kit AL276C was used. Protein concentrations were determined using the Bradford protein assay. The sAPPα and sAPPβ AlphaLISAs were similar to the SirT1 AlphaLISA (see Supplementary Fig. S3) but the former uses anti-sAPPα antibody AF1168 and 2B3-biotinylated antibodies and the latter an anti-sAPPβ antibody (IBL Cat. #18957) and an anti-N-terminal APP antibody (R&D Systems AF1168) instead of anti-SirT1 antibodies. Brain tissue and plasma were sent to IAS for A03 level analysis.
# SirT1 mRNA = system: SirT1 mRNA; design: method as in PMID 26791201; settings: original studies, A172-E4 cells; cited from earlier work
compound,measurement,setting,value
"CC(N)C(=O)OC(C)(C)Cc1ccc(Cl)cc1 (stereo not shown) [A03, alaproclate]",SirT2 (normalized to protein),[1],not significantly altered
same,Protein concentration in cell lysates (viability surrogate),N2a-E4 cells,did not increase protein concentration
same,SirT1 levels in ApoE4-transfected A172 cells,[2],significantly increased SirT1 levels
same,retention time (Tr) in PAMPA,"[3]; IAM.PC.DD2 column, acetonitrile:PBS (pH 5.6) 35:65",3.31
same,KIAM,"[3]; KIAM = (Tr-T0)/T0, T0 = 1.24 min",1.67
same,(KIAM/MW^4) * 10^−(10),[3]; MW 255.74 g/mol,3.90
same,factor by which brain levels after SQ exceed those after oral delivery,[4]; 10 mg/Kg SQ vs 10 mg/Kg oral,4 to 5
same,AUC plasma,"[4]; mice, SQ 10 mg/kg, unit as printed in Fig. 4d legend",1520 ng·h/mL
same,Tmax,"[4]; mouse, brain, sc, mice, SQ 10 mg/kg, n = 1",2 h
same,Cmax,"[4]; mouse, brain, sc, mice, SQ 10 mg/kg, n = 1, read-out: Cmax in brain",~2600 ng/g
same,Cmax,"[4]; mouse, brain, subcutaneous, mice, SQ 10 mg/Kg, read-out: Cmax in brain as molar concentration",~10 µM
same,AUC,"[4]; mouse, plasma, subcutaneous, mice, SQ 10 mg/kg",1520 ng·h/mL
same,Brain level 2 hours after the last dose,"[5]; 25-day study, oral 40 mg/kg/day, n = 12",above 2000 n/g
same,concentration at 2 h,"[5]; E4FAD, mouse, brain, 56-day study, oral 40 mg/kg/day, n = 16, read-out: Brain level 2 hours after the last dose",~700 ng/g
same,"Brain levels 2 hours after the last dose, E1 vs A03","[5]; pilot study, SQ 10 mg/kg/day, 28 days, n = 8",slightly higher
same,SirT1 mRNA,SirT1 mRNA,increase in SirT1 mRNA
